Experiments:
Experiment in all cases: relative viability (nuclei count vs DMSO), 5 days (fraction); higher = more cells survive
AZ505 + Palbociclib = compound: C1CCC(CC1)N(CCNCCC2=C3C(=C(C=C2)O)NC(=O)CO3)C(=O)CCNCCC4=CC(=C(C=C4)Cl)Cl [AZ505] + CC(=O)c1c(C)c2cnc(Nc3ccc(N4CCNCC4)cn3)nc2n(C2CCCC2)c1=O [Palbociclib] (partner 0.5 µM)
Procedure, shortened: (§1)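 The day after seeding in 1536-well plates, lung cancer cell lines were treated by pin tool with a single drug, or with a fixed anchor-drug dose together with five library-drug doses (not always all listed) in √10 steps. After 5 days, a combined fix-and-stain solution (final 0.05% Triton X-100, 1% formaldehyde, 1 ug/ml Hoechst) was added. Nuclei counted on 4× images gave relative viability as treated counts over vehicle counts, reported as the median of duplicate plates.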

AZ505 + Alpelisib = compound: C1CCC(CC1)N(CCNCCC2=C3C(=C(C=C2)O)NC(=O)CO3)C(=O)CCNCCC4=CC(=C(C=C4)Cl)Cl [AZ505] + Cc1nc(NC(=O)N2CCC[C@H]2C(N)=O)sc1-c1ccnc(C(C)(C)C(F)(F)F)c1 [Alpelisib] (partner 2 µM)
Procedure, shortened: as §1

Dactolisib + Pictilisib = compound: Cn1c(=O)n(-c2ccc(C(C)(C)C#N)cc2)c2c3cc(-c4cnc5ccccc5c4)ccc3ncc21 [Dactolisib] + CS(=O)(=O)N1CCN(Cc2cc3nc(-c4cccc5[nH]ncc45)nc(N4CCOCC4)c3s2)CC1 [Pictilisib] (partner 1 µM)
Procedure, shortened: as §1

Dactolisib + Pemetrexed = compound: Cn1c(=O)n(-c2ccc(C(C)(C)C#N)cc2)c2c3cc(-c4cnc5ccccc5c4)ccc3ncc21 [Dactolisib] + Nc1nc2[nH]cc(CCc3ccc(C(=O)N[C@@H](CCC(=O)O)C(=O)O)cc3)c2c(=O)[nH]1 [Pemetrexed] (partner 0.2 µM)
Procedure, shortened: as §1

| Cell Line | relative viability (AZ505 + Palbociclib; first compound 0.08 µM) | relative viability (AZ505 + Palbociclib; first compound 0.253 µM) | relative viability (AZ505 + Palbociclib; first compound 0.8 µM) | relative viability (AZ505 + Palbociclib; first compound 2.53 µM) | relative viability (AZ505 + Palbociclib; first compound 8 µM) | relative viability (AZ505 + Alpelisib; first compound 0.08 µM) | relative viability (AZ505 + Alpelisib; first compound 0.253 µM) | relative viability (AZ505 + Alpelisib; first compound 0.8 µM) | relative viability (AZ505 + Alpelisib; first compound 2.53 µM) | relative viability (AZ505 + Alpelisib; first compound 8 µM) | relative viability (Dactolisib + Pictilisib; first compound 0.002 µM) | relative viability (Dactolisib + Pictilisib; first compound 0.006325 µM) | relative viability (Dactolisib + Pictilisib; first compound 0.02 µM) | relative viability (Dactolisib + Pictilisib; first compound 0.06325 µM) | relative viability (Dactolisib + Pictilisib; first compound 0.2 µM) | relative viability (Dactolisib + Pemetrexed; first compound 0.002 µM) | relative viability (Dactolisib + Pemetrexed; first compound 0.006325 µM) | relative viability (Dactolisib + Pemetrexed; first compound 0.02 µM) | relative viability (Dactolisib + Pemetrexed; first compound 0.06325 µM) | relative viability (Dactolisib + Pemetrexed; first compound 0.2 µM) |
| --- | --- | --- | --- | --- | --- | --- | --- | --- | --- | --- | --- | --- | --- | --- | --- | --- | --- | --- | --- | --- |
| H3255 | 0.292 | 0.31 | 0.301 | 0.298 | 0.302 | 0.62 | 0.8 | 0.715 | 0.705 | 0.813 | 0.513 | 0.44 | 0.473 | 0.35 | 0.339 | 0.568 | 0.44 | 0.558 | 0.464 | 0.474 |
| NCI-H1993 | 0.599 | 0.705 | 0.621 | 0.583 | 0.713 | 0.544 | 0.729 | 0.753 | 0.741 | 0.608 | 0.99 | 0.85 | 0.804 | 0.705 | 0.834 | 0.554 | 0.496 | 0.49 | 0.345 | 0.421 |
| NCI-H1734 | 0.351 | 0.373 | 0.324 | 0.411 | 0.338 | 0.633 | 0.626 | 0.631 | 0.744 | 0.683 | 0.468 | 0.395 | 0.39 | 0.26 | 0.216 | 0.335 | 0.436 | 0.415 | 0.36 | 0.317 |
| HOP-62 | 0.403 | 0.535 | 0.461 | 0.475 | 0.52 | 0.94 | 1.17 | 0.889 | 0.844 | 1.04 | 0.967 | 0.58 | 0.604 | 0.236 | 0.254 | 0.305 | 0.33 | 0.341 | 0.262 | 0.25 |
| LOU-NH91 | 0.55 | 0.534 | 0.551 | 0.562 | 0.536 | 0.622 | 0.636 | 0.611 | 0.631 | 0.742 | 0.586 | 0.499 | 0.525 | 0.494 | 0.496 | 0.287 | 0.377 | 0.372 | 0.431 | 0.445 |
| NCI-H2228 | 0.554 | 0.723 | 0.69 | 0.768 | 0.918 | 0.627 | 0.554 | 0.677 | 0.69 | 0.748 | 0.355 | 0.291 | 0.248 | 0.173 | 0.222 | 0.35 | 0.352 | 0.324 | 0.252 | 0.144 |
| PC-14 | 0.402 | 0.439 | 0.456 | 0.471 | 0.595 | 0.81 | 0.964 | 0.925 | 0.906 | 0.961 | 0.9 | 0.586 | 0.412 | 0.196 | 0.0762 | 0.0904 | 0.129 | 0.192 | 0.197 | 0.145 |
| NCI-H1437 | 0.309 | 0.33 | 0.314 | 0.335 | 0.301 | 0.852 | 0.93 | 0.876 | 0.932 | 1 | 0.452 | 0.421 | 0.371 | 0.268 | 0.165 | 0.309 | 0.347 | 0.312 | 0.27 | 0.227 |
| NCI-H460 | 0.183 | 0.162 | 0.147 | 0.187 | 0.167 | 0.458 | 0.559 | 0.485 | 0.507 | 0.469 | 0.423 | 0.355 | 0.289 | 0.302 | 0.306 | 0.0654 | 0.0618 | 0.0641 | 0.0892 | 0.0591 |
| NCI-H1666 | 0.625 | 0.648 | 0.621 | 0.72 | 0.601 | 0.899 | 1.01 | 0.867 | 0.999 | 1.05 | 0.417 | 0.405 | 0.438 | 0.383 | 0.366 | 0.849 | 0.892 | 0.858 | 0.736 | 0.802 |
| NCI-H1651 | 0.512 | 0.517 | 0.502 | 0.498 | 0.523 | 0.94 | 1.03 | 0.977 | 0.89 | 0.939 | 0.654 | 0.514 | 0.449 | 0.328 | 0.265 | 0.53 | 0.654 | 0.533 | 0.329 | 0.299 |
| NCI-H1755 | 0.42 | 0.46 | 0.434 | 0.441 | 0.442 | 0.893 | 0.915 | 0.911 | 0.883 | 0.923 | 0.47 | 0.471 | 0.451 | 0.368 | 0.274 | 0.414 | 0.389 | 0.455 | 0.393 | 0.412 |
| NCI-H661 | 0.404 | 0.433 | 0.402 | 0.422 | 0.372 | 0.666 | 0.493 | 0.738 | 0.81 | 0.907 | 0.468 | 0.406 | 0.389 | 0.377 | 0.251 | 0.823 | 0.932 | 0.854 | 0.498 | 0.515 |
| HARA | 0.198 | 0.266 | 0.185 | 0.218 | 0.224 | 0.704 | 0.641 | 0.582 | 0.512 | 0.494 | 0.469 | 0.34 | 0.366 | 0.277 | 0.236 | 0.242 | 0.22 | 0.3 | 0.235 | 0.223 |
| NCI-H23 | 0.465 | 0.522 | 0.505 | 0.533 | 0.485 | 0.617 |  | 0.653 | 0.644 | 0.845 | 0.503 | 0.529 | 0.37 | 0.252 | 0.23 | 0.635 | 0.635 | 0.563 | 0.289 | 0.296 |
| LCLC-97TM1 | 0.213 | 0.252 | 0.219 |  | 0.232 | 0.327 | 0.333 | 0.26 | 0.247 | 0.363 | 0.252 | 0.151 | 0.169 | 0.145 | 0.12 | 0.169 | 0.158 | 0.186 | 0.192 | 0.16 |

From the supplement of paper PMC10307832
